In US20240246964A1 (Arbutus Biopharma Corporation, priority 2021, published 2024):

Columns and labels:
[1] = molecular target: PD-L1 His protein / PD-1 Fc protein (Homo sapiens (Human), UniProt Q9NZQ7); experiment: HTRF Assay (PD-1/PD-L1 interaction); type: binding; conditions: PD-L1 His 6 nM, PD-1 Fc 6 nM
human PD-L1 = human PD-L1 (Homo sapiens (Human), UniProt Q9NZQ7); experiment: T cell activation luciferase reporter cell culture system (T Cell Activation Assay); type: cell-based; conditions: luciferase reporter assay; PD-L1 aAPC/CHO-K1 cells with PD-1 effector Jurkat T cells
Sequence of human PD-L1 (Q9NZQ7 19-290): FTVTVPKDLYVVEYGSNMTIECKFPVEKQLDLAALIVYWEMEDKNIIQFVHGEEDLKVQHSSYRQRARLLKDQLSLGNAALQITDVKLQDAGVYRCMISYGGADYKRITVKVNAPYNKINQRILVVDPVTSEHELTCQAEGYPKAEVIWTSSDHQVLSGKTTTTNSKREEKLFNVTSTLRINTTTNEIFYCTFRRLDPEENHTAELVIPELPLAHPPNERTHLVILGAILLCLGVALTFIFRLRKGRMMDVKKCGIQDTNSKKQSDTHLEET

Sequence of PD-L1 His protein / PD-1 Fc protein (Q9NZQ7 19-238): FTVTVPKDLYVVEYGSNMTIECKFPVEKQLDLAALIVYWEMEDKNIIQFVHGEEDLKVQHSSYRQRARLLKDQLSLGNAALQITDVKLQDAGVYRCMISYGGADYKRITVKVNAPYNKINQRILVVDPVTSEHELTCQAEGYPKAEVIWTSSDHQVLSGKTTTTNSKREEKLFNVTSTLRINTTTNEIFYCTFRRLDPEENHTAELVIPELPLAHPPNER

| SMILES | IC50 [1] [nM] | EC50 (human PD-L1) [nM] |
| --- | --- | --- |
| COc1cc(-c2nccc(-c3cccc(-c4ccc(CNCCCNC(C)=O)c(OC)n4)c3Cl)c2Cl)ccc1CNCCCNC(C)=O [Example 358, N-(3-(((6-(3-(2-(4-(((3-Acetamidopropyl)amino)methyl)-3-methoxyphenyl)-3-chloropyridin-4-yl)-2-chlorophenyl)-2-methoxypyridin-3-yl)methyl)amino)propyl) acetamide] | 0.12 | 64.4 |
| COc1cc(-c2nccc(-c3cccc(-c4ccc5c(CNC[C@H](C)O)cn(C)c5n4)c3Cl)c2Cl)ccc1CNC[C@@H]1CCC(=O)N1 [Compound 98, (S)-5-(((4-(3-chloro-4-(2-chloro-3-(3-((((S)-2-hydroxypropyl)amino)methyl)-1-methyl-1H-pyrrolo[2,3-b]pyridin-6-yl)phenyl)pyridin-2-yl)-2-methoxybenzyl)amino)methyl)pyrrolidin-2-one] | 0.7 | 30.5 |
| COc1cc(-c2nccc(-c3cccc(NC(=O)c4ccc(CNC[C@H](C)O)cn4)c3Cl)c2Cl)ccc1CNC[C@H](C)O [Example 678, N-(2-Chloro-3-(3-chloro-2-(4-((((S)-2-hydroxypropyl)amino)methyl)-3-methoxyphenyl)pyridin-4-yl)phenyl)-5-((((S)-2-hydroxypropyl)amino)methyl)picolinamide] | 0.02 | 37 |
| COc1cc(-c2nccc(-c3cccc(-c4ccc(CNC5CCN(C(C)=O)CC5)c(OC)n4)c3Cl)c2F)ccc1CNC1CCN(C(C)=O)CC1 [Example 337, 1-(4-(((6-(3-(2-(4-(((1-Acetylpiperidin-4-yl)amino)methyl)-3-methoxyphenyl)-3-fluoropyridin-4-yl)-2-chlorophenyl)-2-methoxypyridin-3-yl)methyl)amino)piperidin-1-yl)ethan-1-one] | 0.3 | 62 |
| COc1cc(-c2nccc(-c3cccc(-c4ccc5c(CNC6CCOCC6)cn(C)c5n4)c3Cl)c2Cl)ccc1CN1CC2(C1)CN(C(C)=O)C2 [Compound 609, 1-(6-(4-(3-Chloro-4-(2-chloro-3-(1-methyl-3-(((tetrahydro-2H-pyran-4-yl)amino)methyl)-1H-pyrrolo[2,3-b]pyridin-6-yl)phenyl)pyridin-2-yl)-2-methoxybenzyl)-2,6-diazaspiro[3.3]heptan-2-yl)ethan-1-one] | 0.22 | 10000 |
| COc1nc(-c2cccc(-c3ccnc(-c4ccc5c(c4)CN(CCNC[C@@H]4CCC(=O)N4)C5=O)c3Cl)c2Cl)ccc1CNC1CCN(C(C)=O)CC1 [Compound 143, (S)-5-(4-(3-(5-(((1-acetylpiperidin-4-yl)amino)methyl)-6-methoxypyridin-2-yl)-2-chlorophenyl)-3-chloropyridin-2-yl)-2-(2-(((5-oxopyrrolidin-2-yl)methyl)amino)ethyl)isoindolin-1-one] | 3.94 | 5440 |
| COc1cc(-c2nccc(-c3cccc(-c4ccc(CN5CC(C)(O)C5)c(OC)n4)c3Cl)c2Cl)cc2c1CN(C[C@H](C)O)CC2 [Compound 217, (S)-1-((6-(2-chloro-3-(3-chloro-2-(2-(2-hydroxypropyl)-8-methoxy-1,2,3,4-tetrahydroisoquinolin-6-yl)pyridin-4-yl)phenyl)-2-methoxypyridin-3-yl)methyl)-3-methylazetidin-3-ol] | 2.01 | 38.2 |
| COc1cc(-c2ncnc(-c3cccc(-c4ccc(CNC[C@@H]5CCC(=O)N5)c(OC)n4)c3Cl)c2OC)ccc1CNC[C@@H]1CCC(=O)N1 [Example 716, (S)-5-((((6-(2-chloro-3-(5-methoxy-6-(3-methoxy-4-(((((S)-5-oxopyrrolidin-2-yl)methyl)amino)methyl)phenyl)pyrimidin-4-yl)phenyl)-2-methoxypyridin-3-yl)methyl)amino)methyl)pyrrolidin-2-one] | 0.6 | 940 |
| COc1nc(-c2cccc(-c3ccnc(-c4cc(OC)c5nc(CNC6CC7(COC7)C6)cn5c4)c3Cl)c2Cl)ccc1CNC[C@@H]1CCC(=O)N1 [Example 321, (S)-5-((((6-(3-(2-(2-(((2-Oxaspiro[3.3]heptan-6-yl)amino)methyl)-8-methoxyimidazo[1,2-a]pyridin-6-yl)-3-chloropyridin-4-yl)-2-chlorophenyl)-2-methoxypyridin-3-yl)methyl)amino)methyl)pyrrolidin-2-one] | 0.847 | 64.7 |
| COc1cc(-c2nccc(-c3cccc(-c4ccc(CN5CC(C)(O)C5)c(OC)n4)c3Cl)c2Cl)ccc1CN1CC2(CNC(=O)C2)C1 [Example 518, 2-(4-(3-Chloro-4-(2-chloro-3-(5-((3-hydroxy-3-methylazetidin-1-yl)methyl)-6-methoxypyridin-2-yl)phenyl)pyridin-2-yl)-2-methoxybenzyl)-2,6-diazaspiro[3.4]octan-7-one] | 2.42 | 9.77 |
| COc1nc(-c2cccc(-c3ccnc(-c4ccc5c(c4)CNC5)c3Cl)c2Cl)ccc1CNCCO [Compound 160, 2-(((6-(2-chloro-3-(3-chloro-2-(isoindolin-5-yl)pyridine-4-yl)phenyl)-2-methoxypyridin-3-yl)methyl)amino)ethan-1-ol] | 0.87 | 150 |
| COc1cc(-c2nccc(-c3cccc(-c4ccc(CNC5CCOCC5)c(OC)n4)c3C(F)(F)F)c2Cl)ccc1CNC1CCOCC1 [Example 529, N-((6-(3-(3-Chloro-2-(3-methoxy-4-(((tetrahydro-2H-pyran-4-yl)amino)methyl)phenyl)pyridin-4-yl)-2-(trifluoromethyl)phenyl)-2-methoxypyridin-3-yl)methyl)tetrahydro-2H-pyran-4-amine] | 110 | ≥ 10000 |
| COc1nc(-c2cccc(-c3ccnc(-c4cc(OC)c5nc(CN[C@H]6C[C@](C)(O)C6)cn5c4)c3Cl)c2Cl)ccc1CNC[C@@H]1CCC(=O)N1 [Example 312, (S)-5-((((6-(2-chloro-3-(3-chloro-2-(2-((((1r,3r)-3-hydroxy-3-methylcyclobutyl)amino)methyl)-8-methoxyimidazo[1,2-a]pyridin-6-yl)pyridin-4-yl)phenyl)-2-methoxypyridin-3-yl)methyl)amino)methyl)pyrrolidin-2-one] | 0.813 | 178 |
| COc1nc(-c2cccc(-c3nccc(-c4ccc(CN5CC6(CCN(C(C)=O)C6)C5)c(OC)n4)c3Cl)c2Cl)ccc1CN1CC2(CCN(C(C)=O)C2)C1 [Example 760, 1-(2-((6-(3-(5-((6-Acetyl-2,6-diazaspiro[3.4]octan-2-yl)methyl)-3′-chloro-6-methoxy-[2,4′-bipyridin]-2′-yl)-2-chlorophenyl)-2-methoxypyridin-3-yl)methyl)-2,6-diazaspiro[3.4]octan-6-yl)ethan-1-one] | 0.32 | 19.2 |
| COc1cc(-c2nccc(-c3cccc(NC(=O)c4ccc(CNC[C@H](C)O)cn4)c3C)c2Cl)ccc1CNC[C@H](C)O [Example 650, N-(3-(3-Chloro-2-(4-((((S)-2-hydroxypropyl)amino)methyl)-3-methoxyphenyl)pyridin-4-yl)-2-methylphenyl)-5-((((S)-2-hydroxypropyl)amino)methyl)picolinamide] | 0.1 | 144 |
| COc1nc(-c2cccc(-c3ccnc(-c4ccc5c(CNC[C@H](C)OC)cn(C)c5c4)c3Cl)c2Cl)ccc1CNC[C@@H]1CCC(=O)N1 [Compound 40, (S)-5-((((6-(2-chloro-3-(3-chloro-2-(3-((((S)-2-methoxypropyl)amino)methyl)-1-methyl-1H-indol-6-yl)pyridin-4-yl)phenyl)-2-methoxypyridin-3-yl)methyl)amino)methyl)pyrrolidin-2-one] | 10.3 | 4150 |
| COc1nc(-c2cccc(-c3ccnc(-c4cc(OC)c5nc(CNC6CCN(C(C)=O)CC6)nn5c4)c3Cl)c2Cl)ccc1CNC(C)C [Compound 765, 1-(4-(((6-(3-Chloro-4-(2-chloro-3-(5-((isopropylamino)methyl)-6-methoxypyridin-2-yl)phenyl)pyridin-2-yl)-8-methoxy-[1,2,4]triazolo[1,5-a]pyridin-2-yl)methyl)amino)piperidin-1-yl)ethan-1-one] | 0.28 | 1280 |
| COc1cc(-c2nccc(-c3cccc(NC(=O)c4cn(C)c(=O)n(C)c4=O)c3Cl)c2Cl)ccc1CNC1CCN(C(C)=O)CC1 [Example 656, N-(3-(2-(4-(((1-Acetylpiperidin-4-yl)amino)methyl)-3-methoxyphenyl)-3-chloropyridin-4-yl)-2-chlorophenyl)-1,3-dimethyl-2,4-dioxo-1,2,3,4-tetrahydropyrimidine-5-carboxamide] | 0.16 | 589 |
| CNCc1ccc(-c2cccc(-c3ccnc(-c4ccc(CNC5CCN(C(C)=O)CC5)c(OC)c4)c3Cl)c2Cl)nc1OC [Compound 212, 1-(4-((4-(3-chloro-4-(2-chloro-3-(6-methoxy-5-((methylamino)methyl)pyridin-2-yl)phenyl)pyridin-2-yl)-2-methoxybenzyl)amino)piperidin-1-yl)ethan-1-one] | 2.72 | 20.6 |
| COc1cc(-c2nccc(-c3cccc(-c4ccc(CNC5CCN(C(C)=O)CC5)c(OC)n4)c3Cl)c2Cl)ccc1CNC1CCN(S(C)(=O)=O)CC1 [Example 383, 1-(4-(((6-(2-Chloro-3-(3-chloro-2-(3-methoxy-4-(((1-(methylsulfonyl)piperidin-4-yl)amino)methyl)phenyl)pyridin-4-yl)phenyl)-2-methoxypyridin-3-yl)methyl)amino)piperidin-1-yl)ethan-1-one] | 0.998 | 14.4 |
| COc1cc(-c2nccc(-c3cccc(-c4ccc(CNC[C@H](C)O)c(OC)n4)c3Cl)c2Cl)cc2c1CN(C[C@H](C)O)CC2 [Compound 214, (S)-1-(((6-(2-chloro-3-(3-chloro-2-(2-((S)-2-hydroxypropyl)-8-methoxy-1,2,3,4-tetrahydroisoquinolin-6-yl)pyridin-4-yl)phenyl)-2-methoxypyridin-3-yl)methyl)amino)propan-2-ol] | 4.31 | 27 |
